Experiments:
Format in all cases: biochemical
PIP4K2A [1] = molecular target: T1, PIP4K2A (Homo sapiens, UniProt P48426); assay: Kinase Assay PIP4K2 A (Table 2); parameters: 4 nM PIP4K2A (full length protein, SignalChem); purchased SignalChem; conditions: compounds listed under IC50 bins
T1 sequence (P48426 1-406): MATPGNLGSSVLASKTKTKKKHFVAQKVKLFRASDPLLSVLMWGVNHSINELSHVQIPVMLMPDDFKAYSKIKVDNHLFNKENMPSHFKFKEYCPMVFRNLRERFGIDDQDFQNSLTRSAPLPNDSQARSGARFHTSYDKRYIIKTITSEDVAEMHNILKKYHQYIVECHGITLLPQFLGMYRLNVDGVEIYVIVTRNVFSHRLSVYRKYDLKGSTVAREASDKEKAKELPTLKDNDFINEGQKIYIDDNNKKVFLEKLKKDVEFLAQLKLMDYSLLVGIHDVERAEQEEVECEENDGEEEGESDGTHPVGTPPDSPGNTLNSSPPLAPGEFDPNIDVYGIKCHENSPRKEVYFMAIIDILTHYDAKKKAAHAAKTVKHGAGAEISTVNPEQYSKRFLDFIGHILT
How it was run: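 Full-length PIP4K2A (4 nM in the added mix, with 100 μM PI(5)P diC8) pre-incubated 15 min at RT with compounds (10-point, 3-fold series) in 20 mM MOPS pH 7.2, 25 mM MgCl2, 0.005% Tween 20. ATP added from a 60 μM solution, 1 h at RT; ADP-Glo luminescence, IC50 fitted from % inhibition versus DMSO.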

PIP4K2B = molecular target: T2, PIP4K2B (Homo sapiens, UniProt P78356); assay: Trans-FI P kinase assay PIP4K2B (Table 4); conditions: compounds listed under IC50 bins; read-out: Trans-FI P kinase assays: PIP4K2B IC50
T2 construct: made in house; host or cells: E. coli
T2 sequence (P78356 1-416): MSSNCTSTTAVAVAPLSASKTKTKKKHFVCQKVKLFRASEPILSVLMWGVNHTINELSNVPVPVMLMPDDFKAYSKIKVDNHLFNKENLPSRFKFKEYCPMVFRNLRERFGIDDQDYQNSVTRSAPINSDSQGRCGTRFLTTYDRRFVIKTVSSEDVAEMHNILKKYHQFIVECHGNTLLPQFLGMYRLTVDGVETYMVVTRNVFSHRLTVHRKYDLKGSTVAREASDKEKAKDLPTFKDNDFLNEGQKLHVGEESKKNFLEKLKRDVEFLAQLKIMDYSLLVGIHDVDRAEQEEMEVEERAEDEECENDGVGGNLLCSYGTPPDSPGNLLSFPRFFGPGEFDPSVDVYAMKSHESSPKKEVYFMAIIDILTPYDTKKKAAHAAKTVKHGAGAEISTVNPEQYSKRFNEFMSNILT
How it was run: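 Transcreener FI detection (Ex 584/Em 623) of GDP, converted via calibration curve, gives IC50 from residual activity versus log concentration (highest 4.8 μM). Reaction: 80 μM PI5P plus DOPE carrier, 100 μM GTP, 5 nM GST-tagged enzyme, pH 7.3 HEPES with MgCl2 and 5% DMSO, 2 h after 1 h enzyme-compound preincubation at 27° C.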

PIP4K2A [2] = molecular target: T1, PIP4K2A; assay: ADP-glo kinase assay PIP4K 2A (Table 3); parameters: made in house; host or cells: E. coli; conditions: compounds listed under IC50 bins
How it was run: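 Full-length PIP4K2A (4 nM in the mix) with 100 μM PI(5)P diC8 pre-incubated 15 min with compound in MOPS pH 7.2, 25 mM MgCl2; ATP added (60 μM solution), 1 h at RT. ADP formed read by ADP-Glo luminescence; 10-point curves versus DMSO controls fitted to IC50.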

Compound | IC50 (PIP4K2A [1]) | IC50 (PIP4K2B) | IC50 (PIP4K2A [2])
O=C1CCCN1c1ccc(-c2cnc(Nc3cnc4c(c3)N3C(=O)CC[C@H]3CO4)cc2C2CC2)cc1 [Example 178, (S)-2-((4-cyclopropyl-5-(4-(2-oxopyrrolidin-1-yl)phenyl)pyridin-2-yl)amino)-6,6a,7,8-tetrahydro-9H-pyrido[2,3-b]pyrrolo[1,2-d][1,4]oxazin-9-one] | 1 to 10 nM | 1 to 10 nM | 1 to 10 nM
COc1cc(Nc2cnc3c(c2)N2C(=O)CC[C@H]2CO3)ncc1-c1ccc(N2CCCC2=O)cc1 [Example 179, (S)-2-((4-methoxy-5-(4-(2-oxopyrrolidin-1-yl)phenyl)pyridin-2-yl)amino)-6,6a,7,8-tetrahydro-9H-pyrido[2,3-b]pyrrolo[1,2-d][1,4]oxazin-9-one] | ≤ 1 nM | 1 to 10 nM | 1 to 10 nM
COc1cc(Nc2cnc3c(c2)N2C(=O)CC[C@H]2CO3)ncc1-c1ccc(N2CCCC2=O)c(F)c1 [Example 183, (S)-2-((5-(3-fluoro-4-(2-oxopyrrolidin-1-yl)phenyl)-4-methoxypyridin-2-yl)amino)-6,6a,7,8-tetrahydro-9H-pyrido[2,3-b]pyrrolo[1,2-d][1,4]oxazin-9-one] | ≤ 1 nM | 10 to 100 nM | 1 to 10 nM
Cc1nc(Nc2cnc3c(c2)N2C(=O)CC[C@H]2CO3)ccc1-c1ccc(N2CCCC2=O)cc1 [Example 190, (S)-2-((6-methyl-5-(4-(2-oxopyrrolidin-1-yl)phenyl)pyridin-2-yl)amino)-6,6a,7,8-tetrahydro-9H-pyrido[2,3-b]pyrrolo[1,2-d][1,4]oxazin-9-one] | 1 to 10 nM | 10 to 100 nM | 10 to 100 nM
O=C1CCCN1c1ccc(-c2ccc(Nc3cnc4c(c3)N3C(=O)CC[C@H]3CO4)nc2)c(F)c1 [Example 191, (S)-2-((5-(2-fluoro-4-(2-oxopyrrolidin-1-yl)phenyl)pyridin-2-yl)amino)-6,6a,7,8-tetrahydro-9H-pyrido[2,3-b]pyrrolo[1,2-d][1,4]oxazin-9-one] | 1 to 10 nM | 10 to 100 nM | 10 to 100 nM
Cc1cc(N2CCCC2=O)ccc1-c1ccc(Nc2cnc3c(c2)N2C(=O)CC[C@H]2CO3)nc1 [Example 192, (S)-2-((5-(2-methyl-4-(2-oxopyrrolidin-1-yl)phenyl)pyridin-2-yl)amino)-6,6a,7,8-tetrahydro-9H-pyrido[2,3-b]pyrrolo[1,2-d][1,4]oxazin-9-one] | 10 to 100 nM | 10 to 100 nM | 10 to 100 nM
COCc1nc(Nc2cnc3c(c2)N2C(=O)CC[C@H]2CO3)ncc1-c1ccc(N2CCCC2=O)cc1 [Example 197, (S)-2-((4-(methoxymethyl)-5-(4-(2-oxopyrrolidin-1-yl)phenyl)pyrimidin-2-yl)amino)-6,6a,7,8-tetrahydro-9H-pyrido[2,3-b]pyrrolo[1,2-d][1,4]oxazin-9-one] | 1 to 10 nM | 1 to 10 nM | 1 to 10 nM
CN(C)C(=O)c1ccc(-c2ccc(Nc3cncc(N4CCN(Cc5ccc(N)cc5)C4=O)c3)nc2)cc1 [Example 222, 4-(6-((5-(3-(4-aminobenzyl)-2-oxoimidazolidin-1-yl)pyridin-3-yl)amino)pyridin-3-yl)-N,N-dimethylbenzamide] | ≤ 1 nM | 10 to 100 nM | 1 to 10 nM
CN(C)C(=O)c1ccc(-c2ccc(Nc3cncc(N4CCN(Cc5cccc(N)c5)C4=O)c3)nc2)cc1 [Example 223, 4-(6-((5-(3-(3-aminobenzyl)-2-oxoimidazolidin-1-yl)pyridin-3-yl)amino)pyridin-3-yl)-N,N-dimethylbenzamide] | ≤ 1 nM | 10 to 100 nM | 1 to 10 nM
CN(C)C(=O)c1ccc(-c2ccc(Nc3cncc(N4CCN(Cc5cccc(NC(=O)CCc6cccc(N)c6)c5)C4=O)c3)nc2)cc1 [Example 224, 4-(6-((5-(3-(3-(3-(3-aminophenyl)propanamido)benzyl)-2-oxoimidazolidin-1-yl)pyridin-3-yl)amino)pyridin-3-yl)-N,N-dimethylbenzamide] | 1 to 10 nM | 10 to 100 nM | 1 to 10 nM

Reference: US11667651B2, “Aminopyridine derivatives as phosphatidylinositol phosphate kinase inhibitors” (HiberCell, Inc., priority 2017, dated 2023)
